# Laboratory results as given in US7482348B2, “Piperazinyl substituted cyclohexane-1,4-diamines” (Janssen Pharmaceutica N.V., priority 2005, dated 2009).
# pKi: −log10 of the molar value.
# Legend:
# α1a-AR = biological target: T1, α1a-AR (Homo sapiens, UniProt P35348); experiment: α1-Adrenergic receptor radio-ligand (125I-HEAT) binding assay, α1a subtype; settings: membranes of transfected COS-7 cells, 125I-HEAT 50 pM
# T1 construct: expressed in transfected cells; host or cells: COS-7 (African green monkey kidney) membranes
# T1 sequence (P35348 1-455 isoform P35348-4): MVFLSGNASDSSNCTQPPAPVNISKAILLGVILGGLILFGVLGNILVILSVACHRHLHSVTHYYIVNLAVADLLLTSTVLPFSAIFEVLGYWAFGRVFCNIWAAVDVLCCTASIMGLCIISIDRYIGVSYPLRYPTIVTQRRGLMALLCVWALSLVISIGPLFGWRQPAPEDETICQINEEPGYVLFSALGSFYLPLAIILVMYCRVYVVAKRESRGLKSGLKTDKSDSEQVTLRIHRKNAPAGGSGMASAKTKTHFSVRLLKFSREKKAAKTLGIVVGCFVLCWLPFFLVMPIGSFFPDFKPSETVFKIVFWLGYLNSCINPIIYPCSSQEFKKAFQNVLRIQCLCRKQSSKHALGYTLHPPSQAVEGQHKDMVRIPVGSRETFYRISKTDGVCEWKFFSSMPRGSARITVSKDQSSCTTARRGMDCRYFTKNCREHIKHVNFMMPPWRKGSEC
# Experimental: (§1) α1-Adrenergic Receptor Binding Assay
# (§2) Preparation of COS Cell Membranes
# (§3) Membranes were prepared from COS-7 cells (African Green monkey kidney SV40-transformed cells) that had been transfected with one of the three α1-AR subtypes (Genbank accession number for the α1a subtype: AF013261; Genbank accession number for the α1b subtype: NM000679; Genbank accession number for the α1d subtype: NM000678) using the following method: COS cells from ten 100 mm tissue culture plates were scraped into a 5 mL volume of TE (a mixture of 50 mM Tris-HCl, 5 mM EDTA, pH 7.4). The cell suspension was disrupted with a Brinkman Polytron (at a setting of 8) for 10 sec. The disrupted cells were centrifuged at 1000×g for 10 min at 4° C. Supernatants were centrifuged at 34,500×g for 20 min at 4° C. The membrane pellets were suspended in a 2 mL volume of TNE (a mixture of 50 mM Tris-HCl, 5 mM EDTA and 150 mM NaCl at pH 7.4). An aliquot of the membrane suspension was stored at −70° C. until use. The protein concentration was determined using the BioRad “DC” protein assay kit following membrane solubilization with Triton X-100.
# (§4) Radio-ligand Binding Assay
# (§5) Triplicate determinations of radio-ligand binding in the presence of increasing concentrations of testing compound were made. The reagents were added to 96-well polypropylene plate wells. Each assay well contained 140 μL TNE, 25 μL ^125I-2-(β-4-hydroxyphenyl)ethylaminomethyltetralone (^125I-HEAT) (specific activity 2200 Ci/mmol, Dupont-New England Nuclear, 50 pM final), 10 μL testing compound dissolved in dimethyl sulfoxide (DMSO) (1 pM to 10 μM in half-log increments, final), and 25 μL appropriate α1-AR membrane subtype suspension in TNE (0.5 ng/μL for the α1a and α1b subtypes and 13 ng/μL for the α1d subtype). The plate was incubated at rt for 1 hr. The contents of the wells were filtered through a glass filter (type C) (GF/C) membrane Unifilter plate (Packard Instruments) using the Packard Filtermate cell harvester. The filter plates were dried in a vacuum oven for 30 min at 40° C. 25 μL Microscint 20 liquid scintillation fluid (Packard Instuments) was added to each well. The radioactive content was analyzed in the TopCount microplate scintillation counter (Packard Instruments).
# (§6) The Ki values (in nM) shown in Table 1 were determined using GraphPad Prism software.
# α1b-AR = biological target: T2, α1b-AR (Homo sapiens, UniProt P35368); experiment: α1-Adrenergic receptor radio-ligand (125I-HEAT) binding assay, α1b subtype; settings: membranes of transfected COS-7 cells, 125I-HEAT 50 pM
# T2 construct: expressed in transfected cells; host or cells: COS-7 (African green monkey kidney) membranes
# T2 sequence (P35368 1-520): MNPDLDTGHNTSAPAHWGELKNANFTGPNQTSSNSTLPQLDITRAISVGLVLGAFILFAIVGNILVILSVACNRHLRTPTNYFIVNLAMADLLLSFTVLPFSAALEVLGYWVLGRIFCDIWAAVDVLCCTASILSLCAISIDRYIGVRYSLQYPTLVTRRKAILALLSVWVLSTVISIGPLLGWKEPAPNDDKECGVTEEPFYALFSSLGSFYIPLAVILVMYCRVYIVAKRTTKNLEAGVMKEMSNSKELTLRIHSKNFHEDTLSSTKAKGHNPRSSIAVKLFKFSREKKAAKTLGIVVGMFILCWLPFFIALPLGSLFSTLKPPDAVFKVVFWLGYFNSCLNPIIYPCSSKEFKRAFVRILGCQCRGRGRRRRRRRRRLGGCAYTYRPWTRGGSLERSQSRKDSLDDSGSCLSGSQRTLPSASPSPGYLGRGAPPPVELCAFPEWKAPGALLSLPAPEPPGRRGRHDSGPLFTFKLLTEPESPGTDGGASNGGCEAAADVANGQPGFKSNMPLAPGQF
# Experimental: as §1, §2, §3, §4, §5, §6
# α1d-AR = biological target: T3, α1d-AR (Homo sapiens, UniProt P25100); experiment: α1-Adrenergic receptor radio-ligand (125I-HEAT) binding assay, α1d subtype; settings: membranes of transfected COS-7 cells, 125I-HEAT 50 pM
# T3 construct: expressed in transfected cells; host or cells: COS-7 (African green monkey kidney) membranes
# T3 sequence (P25100 1-572): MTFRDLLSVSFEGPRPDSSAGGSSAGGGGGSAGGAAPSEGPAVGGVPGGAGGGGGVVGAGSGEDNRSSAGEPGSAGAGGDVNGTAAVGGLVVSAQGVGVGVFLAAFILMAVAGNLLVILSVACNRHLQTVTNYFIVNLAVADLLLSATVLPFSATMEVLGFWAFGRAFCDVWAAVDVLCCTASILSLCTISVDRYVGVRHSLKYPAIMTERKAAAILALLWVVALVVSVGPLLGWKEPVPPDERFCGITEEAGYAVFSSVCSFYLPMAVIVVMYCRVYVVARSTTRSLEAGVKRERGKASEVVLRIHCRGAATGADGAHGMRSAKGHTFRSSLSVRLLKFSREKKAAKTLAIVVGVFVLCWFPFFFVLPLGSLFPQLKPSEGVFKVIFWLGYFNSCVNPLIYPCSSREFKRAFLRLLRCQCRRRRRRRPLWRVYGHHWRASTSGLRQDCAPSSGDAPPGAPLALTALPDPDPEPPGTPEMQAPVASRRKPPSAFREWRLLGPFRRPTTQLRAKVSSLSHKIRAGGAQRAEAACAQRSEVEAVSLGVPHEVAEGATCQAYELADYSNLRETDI
# Experimental: as §1, §2, §3, §4, §5, §6
# [1] = tested on: α1a and α1d subtypes over the α1b subtype; settings: cited from earlier work
pKi (α1a-AR),pKi (α1b-AR),pKi (α1d-AR),Structure (SMILES),selectivity for the α1a and α1d subtypes over the α1b subtype [1]
7.97,6.40,7.91,"COc1ccc(Cl)cc1S(=O)(=O)N[C@H]1CC[C@@H](N2CCN(c3ncccc3OC(C)C)CC2)CC1 [Cpd 5, 5-chloro-N-cis-{4-[4-(3-isopropoxy-pyridin-2-yl)-piperazin-1-yl]-cyclohexyl}-2-methoxy-benzenesulfonamide]",
7.73,6.22,7.32,"COc1ccc(Cl)cc1S(=O)(=O)N[C@H]1CC[C@@H](N2CCN(c3ncccc3OCC3CC3)CC2)CC1 [Cpd 9, 5-chloro-N-cis-{4-[4-(3-cyclopropylmethoxy-pyridin-2-yl)-piperazin-1-yl]-cyclohexyl}-2-methoxy-benzenesulfonamide]",
7.35,5.73,7.82,"CC(C)Oc1cccnc1N1CCN([C@H]2CC[C@@H](NS(=O)(=O)c3cc(Cl)ccc3F)CC2)CC1 [Cpd 7, 5-chloro-2-fluoro-N-cis-{4-[4-(3-isopropoxy-pyridin-2-yl)-piperazin-1-yl]-cyclohexyl}-benzenesulfonamide]",

# The next lines start with the molecule.
Structure (SMILES),pKi (α1a-AR),pKi (α1b-AR),pKi (α1d-AR),selectivity for the α1a and α1d subtypes over the α1b subtype [1]
"COc1ccc(S(=O)(=O)N[C@H]2CC[C@@H](N3CCN(c4ncccc4OCC4CC4)CC3)CC2)cc1OC [Cpd 1, N-cis-{4-[4-(3-cyclopropylmethoxy-pyridin-2-yl)-piperazin-1-yl]-cyclohexyl}-3,4-dimethoxy-benzenesulfonamide]",6.72,6.44,7.19,
"O=S(=O)(N[C@H]1CC[C@@H](N2CCN(c3ncccc3OCC3CC3)CC2)CC1)c1cc(Cl)ccc1F [Cpd 11, 5-chloro-N-cis-{4-[4-(3-cyclopropylmethoxy-pyridin-2-yl)-piperazin-1-yl]-cyclohexyl}-2-fluoro-benzenesulfonamide]",7.45,6.02,7.36,
"COc1ccc(S(=O)(=O)N[C@H]2CC[C@@H](N3CCN(c4ncccc4OC(C)C)CC3)CC2)cc1OC [Cpd 3, N-cis-{4-[4-(3-isopropoxy-pyridin-2-yl)-piperazin-1-yl]-cyclohexyl}-3,4-dimethoxy-benzenesulfonamide]",7.21,6.95,7.72,
CCOc1ccccc1OCCN[C@H](C)Cc1ccc(OC)c(S(N)(=O)=O)c1 [Tamsulosin],,,,about 15 fold
